Measurements: publication PMC8071423, “A New Pyrimidine Schiff Base with Selective Activities against Enterococcus faecalis and Gastric Adenocarcinoma” (Molecules, 2021)

Assays:
AGS cell line [1] = assay: Comet assay (alkaline single-cell gel electrophoresis), DNA damage; type: cell-based, human; conditions: 50 µM
Protocol: To evaluate DNA damage induced by incubation with 3, alkaline single-cell gel electrophoresis (comet assay) was performed. Cells were seeded in 12-well plates in a density of 1 × 10^5 cell/well. After overnight incubation, the tested compound in IC50 concentration (50 µM) was added. After incubation, cells were harvested, centrifuged, and resuspended in PBS. The cell suspension was mixed with 1% low melting point agarose and attached to the slide covered with 1% normal melting point agarose. Subsequently, slides were incubated in a buffer (pH 10.0) containing 2.5 M NaCl, 10 mM Tris-HCl buffer, 100 mM EDTA, and 1% Triton X-100 for 1 h. Then samples were transferred to alkaline electrophoresis buffer containing 0.3 M […] and 1mM EDTA for a 20 min incubation followed by electrophoresis performed at 25 V and 300 mA for 20 min. After electrophoresis, samples were incubated with a neutral pH buffer (0.4 M Tris-HCl, pH 7.5) for 10 min and washed with deionized water. After air-drying, samples were stained with Hoechst 33342 and visualized with a fluorescence microscope using a UV filter. The damages were visually scored from 100 randomly selected cells. […] Based on results, the damage index (DI) was calculated according to the following formula:(3) DI=0×n0+1×n1+2×n2+3×n3+4×n4, where n stands for the amount of each class.

AGS cell line [2] = assay: Microscopic observation of cell and nucleus morphology, Hoechst 33342; type: cell-based, human; conditions: 50 µM, 72 h
Protocol: Morphological changes and DNA fragmentation were examined with an Olympus IX53 inverted fluorescence microscope after staining with Hoechst 33342 according to the manufacturer’s recommendations Thermo Scientific (Waltham, MA, USA). Briefly, cells were seeded in 12-well plates with a density of 1 × 10^5 cell/mL. After overnight incubation, the test substance was added in a half-maximal inhibitory (IC50) concentration and incubated for 24, 48, and 72 h. Before microscopic observation, both adherent and floating cells were collected, centrifuged, resuspended in PBS containing 1 µg/mL Hoechst 33342 dye. After 10 min incubation in the dark, the morphology of cells and DNA were visualized using a contrast phase and a UV filter.

AGS cell line [3] = assay: Annexin V/PI staining, flow cytometry; type: cell-based, human; conditions: 24 h incubation
Protocol: A quantitative analysis of apoptosis was performed by flow cytometry with Alexa Fluor 488 annexin V and PI staining (Thermo Scientific Waltham, MA, USA). Briefly, 3 × 10^5 cells were seeded in 6-well plates. After overnight incubation, the tested compound was added to wells in 5 × IC50 concentration (250 µM). Cells were incubated and tested after 6, 12, 18, and 24 h, according to the manufacturer’s protocol. After incubation, cells were harvested, washed with PBS, and resuspended in 1× binding buffer to a final concentration of 1–5 × 10^6 cell/mL. Then 5 µL of Alexa Fluor 488-annexin V was added to 100 µL of cell suspension and incubated in the dark for 15 min. After incubation, the dye was removed, and cells were suspended in 1 mL of binding buffer. Directly before analysis, cells were incubated with 1 µL PI for 2 min and analyzed by flow cytometry (using CyFlow® Space flow cytometer and FloMax software).

A172 = assay: Neutral red uptake assay, A172; type: cell-based; conditions: Homo sapiens, A 172, 72 h exposure
Protocol: L-929 (mouse C3H/An connective tissue), Caco-2 (human colon adenocarcinoma), A172 (human glioblastoma), AGS (human gastric adenocarcinoma), HepaRG (human hepatoma cell), and HeLa (human cervix epithelioid carcinoma) cell lines were obtained from the European Collection of Authenticated Cell Cultures (ECACC) and provided by Sigma Aldrich/Merck (Munich, Germany). All cell lines were cultured in complete mediums prepared according to the ECACC recommendations and incubated in a humidified atmosphere with 5% CO2 at 37 °C. Neutral red uptake assay was performed according to the protocol. 24 h before treatment cells were seeded in 96-well plates in 1 × 10^5 cell/mL of complete medium. After incubation and attachment of cells, the medium was discarded, and test substances dissolved in the fresh medium were added to wells. Samples were tested after 24, 48, and 72 h incubation. A neutral red working solution (40 µg/mL) was prepared and incubated overnight. […] Absorption was measured using a Thermo Scientific™ (Waltham, MA, USA) Multiskan™ GO microplate spectrophotometer at 540 nm. […] Viability was calculated according to the following formula:(1) % Viability=ODtest substance−ODblind/ODnegative control−ODblind×100 Neutral red uptake assay was performed in quadruple (n = 4). Results were calculated to mean ± standard deviation (SD) using Microsoft Office Excel 2007. […]

CCOc1ccc(N=Cc2c(C)nc(-c3ccccc3)nc2Nc2ccc(F)cc2)cc1 [Compound 3, 5-[(4-ethoxyphenyl)imino]methyl-N-(4-fluorophenyl)-6-methyl-2-phenylpyrimidin-4-amine]
DNA damage index (DI) (AGS cell line [1]; 48 h, control 52): 183 | DNA damage index (DI) (AGS cell line [1]; 72 h, control 20): 259 | cell and nucleus morphology (AGS cell line [2]): broke apart into apoptotic bodies | necrotic cells (stained with PI only) (AGS cell line [3]; 250 µM, control 0.71%): 2.22% | late apoptotic cells (double-stained) (AGS cell line [3]; 250 µM, control 2.48%): 21.58% | early apoptotic cells (annexin V stained) (AGS cell line [3]; 250 µM, control 3.24%): 16.18% | viability at 250 µM (AGS cell line [3]; Homo sapiens, control 93.57%, read-out: viable cells (unstained)): 60% | IC50 (A172): 526 µM
